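96-well plates; 48 h exposure; 5 concentrations. Endpoints by linear interpolation between flanking doses. Not reached: highest tested concentration assigned. The concentration for 50% growth inhibition is given as GI50.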 The source made the active and inactive calls. Cut-off read from the data, not from the text of the source: active = GI50 up to about 1.1 µM and inactive = higher.
Key:
Test in all cases: NCI anticancer screen, dose series, 48 h
[1] = system: OVCAR-5
[2] = system: COLO 205
[3] = system: SN12C
[4] = system: XF498
[5] = system: M19-MEL
[6] = system: IGROV-1
[7] = system: NCI-H522
[8] = system: KM-20L2
[9] = system: SK-MEL-2
[10] = system: SNB-19
[11] = system: HOP-18
[12] = system: SK-OV-3
[13] = system: NCI-H226
[14] = system: RPMI-8226
[15] = system: M14
[16] = system: ACHN

Measured: GI50

O=C1NC(O)CCN1C1OC(CO)C(O)C1O (stereo not drawn)
inactive: [1] > 92 µM | [2] > 250 µM | [3] > 250 µM | [4] > 250 µM | [5] > 213 µM | [6] > 250 µM | [7] > 216 µM | [8] > 68.7 µM | [9] > 158 µM | [10] > 250 µM | [11] > 250 µM | [12] > 250 µM | [13] > 250 µM | [14] > 250 µM

Cc1ccc(C2CC(c3cccc([N+](=O)[O-])c3)=Nc3ccccc3S2)cc1 (stereo not drawn)
inactive: [1] > 100 µM | [2] 98.2 µM | [3] 32.9 µM | [4] 21.4 µM | [5] 40.4 µM | [6] 63.8 µM | [7] 20.5 µM | [8] 44.5 µM | [9] 38.3 µM | [10] > 58.3 µM | [11] 15.4 µM | [12] > 100 µM | [13] > 44.1 µM | [14] 7.83 µM | [15] 31.8 µM | [16] 50.1 µM

CC1CC2=C(S(=O)(=O)c3ccccc3)CC(S(=O)(=O)c3ccccc3)(S(=O)(=O)c3ccccc3)CC21 (stereo not drawn)
inactive: [1] > 100 µM | [2] > 100 µM | [3] > 100 µM | [4] > 100 µM | [6] > 100 µM | [8] > 100 µM | [9] > 100 µM | [10] > 100 µM | [11] > 100 µM | [12] > 100 µM | [13] > 100 µM | [14] 88.1 µM | [15] > 100 µM | [16] > 100 µM

O=C1CCC(NC(=O)Cc2ccc(O)cc2)C(=O)N1 (stereo not drawn)
inactive: [1] > 2500 µM | [2] > 2500 µM | [3] > 2500 µM | [4] > 2500 µM | [5] > 2500 µM | [6] > 2500 µM | [7] > 2500 µM | [8] > 2500 µM | [10] > 2500 µM | [11] > 2500 µM | [12] 1020 µM | [13] > 2500 µM | [15] > 2500 µM | [16] > 2500 µM
